Assay results from patent US9492508B2, “Parathyroid hormone analogs and uses thereof” (The General Hospital Corporation, priority 2010, dated 2016).
Values belong to the compound of their own block, whether it stands above or below them. Square brackets hold non-standard residues; d marks the D form. Peptide text beside a SMILES is read from it. hArg = N=C(N)NCCCC[C@H](N)C(=O)O; Aib = CC(C)(N)C(=O)O

Legend:
in vivo = conditions: Crl:CD(SD), rat, iv, 24.3 nmol/kg
[1] = rat, in vivo, iv, 24.3 nmol/kg
rat PTHR1 (RG) = molecular target: T1, rat PTHR1 (RG) (Rattus norvegicus, UniProt P25961); assay: Competition binding, RG conformation of rat PTHR1; conditions: RG conformation; mean of 4 experiments; read-out: Binding rat PTHR1 IC50 (Log M) RG (converted)
T1 construct: expressed in transfected cells
T1 sequence (P25961 27-591): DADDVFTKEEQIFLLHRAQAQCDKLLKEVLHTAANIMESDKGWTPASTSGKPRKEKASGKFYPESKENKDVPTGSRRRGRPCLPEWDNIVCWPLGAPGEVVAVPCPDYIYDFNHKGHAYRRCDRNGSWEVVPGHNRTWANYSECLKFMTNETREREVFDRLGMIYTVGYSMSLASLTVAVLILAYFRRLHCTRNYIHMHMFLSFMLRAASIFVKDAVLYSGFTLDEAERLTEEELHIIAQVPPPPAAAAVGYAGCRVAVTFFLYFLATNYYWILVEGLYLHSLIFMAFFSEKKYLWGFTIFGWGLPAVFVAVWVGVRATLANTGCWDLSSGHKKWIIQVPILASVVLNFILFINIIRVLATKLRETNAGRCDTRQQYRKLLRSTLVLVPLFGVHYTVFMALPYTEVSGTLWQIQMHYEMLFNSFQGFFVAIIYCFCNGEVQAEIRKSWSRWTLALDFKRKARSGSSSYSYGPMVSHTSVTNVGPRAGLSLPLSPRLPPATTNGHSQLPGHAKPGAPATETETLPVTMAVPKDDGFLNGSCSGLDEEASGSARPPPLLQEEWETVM
Excerpt: (§1) Briefly, the R^0 form of the receptor can be favored by addition of the non-hydrolyzable nucleotide analog GTPγS. The RG form can be favored, for example, by co-transfection of cells with a negative dominant Gαs subunit. […] Data are means of four experiments, each performed in duplicate. Curves were fit to the data using Graph-Pad Prism 4.0.

human PTHR1 (R0) = molecular target: T2, human PTHR1 (R0) (Homo sapiens, UniProt Q03431); assay: Competition binding, R0 conformation of human PTHR1 (COS-7 membranes, 125I-PTH(1-34) tracer, GTPγS)
T2 construct: expressed in transfected cells; host or cells: COS-7 cells (membranes)
T2 sequence (Q03431 27-593): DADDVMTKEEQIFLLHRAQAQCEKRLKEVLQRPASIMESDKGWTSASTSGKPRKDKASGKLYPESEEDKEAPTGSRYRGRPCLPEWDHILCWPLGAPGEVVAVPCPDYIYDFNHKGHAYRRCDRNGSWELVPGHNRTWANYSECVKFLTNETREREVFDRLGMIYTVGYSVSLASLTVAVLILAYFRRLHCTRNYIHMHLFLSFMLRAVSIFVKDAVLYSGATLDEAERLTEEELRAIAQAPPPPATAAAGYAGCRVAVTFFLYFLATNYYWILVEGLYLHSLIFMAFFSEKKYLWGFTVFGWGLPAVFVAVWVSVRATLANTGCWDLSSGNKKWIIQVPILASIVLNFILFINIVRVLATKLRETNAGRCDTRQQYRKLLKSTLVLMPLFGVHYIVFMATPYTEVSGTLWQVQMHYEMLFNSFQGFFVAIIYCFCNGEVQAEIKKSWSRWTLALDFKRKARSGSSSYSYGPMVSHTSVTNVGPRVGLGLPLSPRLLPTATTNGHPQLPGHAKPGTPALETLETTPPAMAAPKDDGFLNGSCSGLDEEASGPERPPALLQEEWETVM
Procedure: as §1
Here, competition binding assays for the R^0 and RG PTHR1 conformation were performed in membranes prepared from transfected COS-7 cells, as described by Dean et al., Mol Endocrinol 22:156-66, 2008. Data are means of three experiments, each performed in duplicate. Curves were fit to the data using Graph-Pad Prism 4.0.

MC3T3-E1 cells [2] = assay: cAMP RIA in intact MC3T3-E1 cells; assay type: cell-based, mouse; conditions: 30 min, room temperature, IBMX
Procedure: cAMP stimulating activity of these polypeptides was also assessed, using two different methods: a radioimmunoassay (RIA; FIG. 2) and a cAMP responsive element fused to a luciferase gene (FIG. 3). Briefly, the RIA cAMP assays were performed in intact MC3T3-E1 cells, a mouse pre-osteoblastic cell line, in 96-well plates, as described by Okazaki et al. (Proc Natl Acad Sci USA 105:16525-30, 2008). […] The cAMP contents of the HCl lysates were then determined by RIA. Data are means of six experiments, each performed in duplicate. Curves were fit to the data using Graph-Pad Prism 4.0.

MC3T3-E1 cells [3] = assay: cAMP response following ligand wash-out in MC3T3-E1 cells; assay type: cell-based, mouse; conditions: 100 nM ligand 5 min, then wash-out; FIGS. 7A, 7B
Procedure: Cells were treated at room temperature with vehicle or the indicated ligand (100 nM) for five minutes; for each ligand duplicate wells were used to obtain the initial (maximum cAMP values); in these wells, cells were co-incubated with ligand and IBMX. After five minutes of initial treatment, the buffer was removed, and, for the initial wells, the reactions were terminated by addition of 50 mM HCl. In the other wells, the cells were rinsed three times with buffer, and incubated in buffer for varying times, as indicated on the abscissa; after which the buffer was replaced by a buffer containing IBMX, and the cells were incubated for another five minutes. After that, the buffer was removed and the reactions were terminated by addition of 50 mM HCl. The cAMP contents of the HCl lysates were then determined by RIA.

[4] = Blood Ca++ responses in mice; assay type: in vivo, mice (C57 BL/6); conditions: 5 nmol/kg s.c., 4, 6, 8 and 24 hours
Procedure: Blood Ca^++ responses in mice were also assayed. Mice (C57 BL/6) were injected subcutaneously with either vehicle or the indicated ligand to give a final dose of 5 nmol/kg body weight, and blood was withdrawn via the tail at times after injection and assessed for Ca^++ concentration using a Bayer Rapid Lab model 348 blood analyzer. […] A similar experiment using 10 nmol/kg by intravenous injection was also conducted with similar results (FIGS. 8C and 8D).

PD PTH receptor = molecular target: T3, PD PTH receptor (Mus musculus, UniProt P41593, S489A/S491A/S492A/S493A/S495A/S501A/S504A); assay: Blood calcium and cAMP in knock-in mice with phosphorylation-deficient (PD) PTH receptor vs wild-type; assay type: in vivo
T3 construct: endogenous in cells; host or cells: knock-in mice (in vivo)
T3 sequence (P41593 27-591 S489A/S491A/S492A/S493A/S495A/S501A/S504A): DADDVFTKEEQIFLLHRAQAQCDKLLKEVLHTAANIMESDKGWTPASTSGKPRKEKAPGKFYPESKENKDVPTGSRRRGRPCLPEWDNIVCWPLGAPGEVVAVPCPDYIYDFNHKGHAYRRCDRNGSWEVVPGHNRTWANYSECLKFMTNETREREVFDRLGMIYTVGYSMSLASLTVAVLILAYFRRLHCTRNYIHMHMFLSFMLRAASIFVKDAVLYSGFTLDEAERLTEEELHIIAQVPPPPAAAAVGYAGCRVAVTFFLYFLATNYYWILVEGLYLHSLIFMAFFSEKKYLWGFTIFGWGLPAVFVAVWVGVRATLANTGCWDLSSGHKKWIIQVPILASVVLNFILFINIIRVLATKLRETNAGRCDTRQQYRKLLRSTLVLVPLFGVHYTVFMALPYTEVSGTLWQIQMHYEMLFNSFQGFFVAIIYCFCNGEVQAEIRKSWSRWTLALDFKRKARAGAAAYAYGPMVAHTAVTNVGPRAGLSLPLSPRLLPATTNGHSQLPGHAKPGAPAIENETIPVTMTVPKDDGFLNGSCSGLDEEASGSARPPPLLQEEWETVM
Procedure: The activity of SP-PTH-AAK (SEQ ID NO:4) was tested in “knock-in” mice that express a PD PTH receptor in place of the wild-type PTH receptor (Bounoutas et al., Endocrinology 147: 4674, 2006).
Blood cAMP levels were also compared between the two types of mice.

- MRT (in vivo): 11.4 min
- Vd (in vivo): 0.211 L/kg
- clearance (in vivo): 18.5 mL/min/kg
- half-life (in vivo): 7.78 min
- AUCinf [1]: 1315 pmol·min/mL
- AUClast [1]: 1308 pmol·min/mL
Compound: CC[C@H](C)[C@H](NC(=O)[C@H](CCC(=O)O)NC(=O)[C@H](CO)NC(=O)[C@@H](NC(=O)[C@@H](N)CO)C(C)C)C(=O)N[C@@H](CCC(N)=O)C(=O)N[C@@H](CC(C)C)C(=O)N[C@@H](CCSC)C(=O)N[C@@H](Cc1cnc[nH]1)C(=O)N[C@@H](CC(N)=O)C(=O)N[C@@H](CC(C)C)C(=O)NCC(=O)N[C@@H](CCCCN)C(=O)N[C@@H](Cc1cnc[nH]1)C(=O)N[C@@H](CC(C)C)C(=O)N[C@@H](CC(N)=O)C(=O)N[C@@H](CO)C(=O)N[C@@H](CCSC)C(=O)N[C@@H](CCC(=O)O)C(=O)N[C@@H](CCCN=C(N)N)C(=O)N[C@H](C(=O)N[C@@H](CCC(=O)O)C(=O)N[C@@H](Cc1c[nH]c2ccccc12)C(=O)N[C@@H](CC(C)C)C(=O)N[C@@H](CCCN=C(N)N)C(=O)N[C@@H](CCCCN)C(=O)N[C@@H](CCCCN)C(=O)N[C@@H](CC(C)C)C(=O)N[C@@H](CCC(N)=O)C(=O)N[C@@H](CC(=O)O)C(=O)N[C@H](C(=O)N[C@@H](Cc1cnc[nH]1)C(=O)N[C@@H](CC(N)=O)C(=O)N[C@@H](Cc1ccccc1)C(=O)O)C(C)C)C(C)C [PTH(1-34), hPTH(1-34)OH, reference compound]

- IC50 (rat PTHR1 (RG)): 380 pM
- R0 binding at human PTH receptor as compared to PTH(1-34) (human PTHR1 (R0); FIG. 5A): enhanced R^0 binding
- IC50 (human PTHR1 (R0); R0 conformation, mean of 3 experiments, read-out: Binding human PTHR1 IC50 (Log M) R0 (converted)): 1820 pM
- EC50 (MC3T3-E1 cells [2]): 44 pM
- cAMP MC3T3-E1 cells EC50 (Log M) (MC3T3-E1 cells [2]; 6 experiments): −10.4 ± 0.1 Log M
Compound: CC[C@H](C)[C@H](NC(=O)[C@H](CCC(=O)O)NC(=O)[C@H](C)NC(=O)[C@@H](NC(=O)[C@H](Cc1c[nH]cn1)NC(=O)[C@@H](NC(=O)[C@H](CCC(=O)O)NC(=O)[C@H](C)NC(=O)[C@@H](NC(=O)[C@H](CC(C)C)NC(=O)[C@H](Cc1c[nH]cn1)NC(=O)[C@H](Cc1c[nH]cn1)NC(=O)[C@H](CC(C)C)NC(=O)[C@H](Cc1ccccc1)NC(=O)[C@H](Cc1ccccc1)NC(=O)[C@H](CCCNC(=N)N)NC(=O)[C@H](CCCNC(=N)N)NC(=O)[C@H](CCCNC(=N)N)NC(=O)[C@H](CC(C)C)NC(=O)[C@H](CC(=O)O)NC(=O)[C@H](CCC(N)=O)NC(=O)[C@@H](NC(=O)[C@H](Cc1c[nH]c2ccccc12)NC(=O)[C@H](CCCCN)NC(=O)[C@H](C)NC(=O)[C@H](CCCCNC(=N)N)NC(=O)[C@H](CCC(N)=O)NC(=O)[C@H](Cc1c[nH]cn1)NC(=O)[C@H](CCSC)NC(=O)[C@H](CC(C)C)NC(=O)[C@H](CCC(N)=O)NC(=O)[C@@H](NC(=O)[C@H](CCC(=O)O)NC(=O)C(C)(C)NC(=O)[C@@H](NC(=O)[C@H](C)N)C(C)C)[C@@H](C)CC)[C@@H](C)CC)[C@@H](C)CC)[C@@H](C)CC)[C@@H](C)O)C(N)=O [AIB-SP-PTH, [Ala^1,12,Aib^3,Gln^10,Har^11,Trp^14]PTH(1-14)/PTHrP(15-36)] (H-AV[Aib]EIQLMHQ[hArg]AKWIQDLRRRFFLHHLIAEIHTAEI-NH2; N-terminus assumed)
- cAMP MC3T3-E1 cells Emax (pmole/well) (MC3T3-E1 cells [2]): 62.1 ± 13.3 pmole/well
- cAMP-stimulating activity after ligand wash-out (MC3T3-E1 cells [3]): maintained cAMP-stimulating activity for longer periods of time than PTH(1-34)
- blood calcium levels at later time points vs PTH(1-34) or vehicle [4]: increased

- increases in blood calcium levels in PD mice as compared to wild-type mice (PD PTH receptor; FIGS. 17A, 17B): either reduced or eliminated
Compound: M-PTH(1-28)
- blood cAMP levels in PD mice as compared to wild-type mice (PD PTH receptor; FIGS. 18A, 18B): increased in magnitude and prolonged in duration
